Measured values from PMC5566834 (2017).

Tests used:
[1] = test system: Rd 13 (DNA, aptamer) CGGGGGGAGGCGGAGGGAGGACTGGGGCTTCATTGACGTTCTTCACAGTAGGGGTAAGGGCTTAGGTGGTTGGTGCCTG; experiment: competitive fluorescence anisotropy; conditions: 140 mM Na+, 2 mM K+, 5 mM Mg2+, 2 mM Ca2+, 20 mM Tris pH 7.4, PosBD displaced, 1,000 pmol drug in 125 μl
[2] = test system: Rd 13 Scrambled (S) (DNA, aptamer) GCTGTGTGCGTGAGTGGAGTGCGCGCGAGAGTGAGTGCGGTGAGAGATTCGGTGTGCGTGTCGTGATGAATGCGACCGG; experiment: circular dichroism; conditions: 0.2 mM Mg2+; 20 mM Tris pH 7.4; 10 μM aptamer, 100 μM posaconazole; no CD change
[3] = test system: amino-Rd 13 (DNA, aptamer) CGGGGGGAGGCGGAGGGAGGACTGGGGCTTCATTGACGTTCTTCACAGTAGGGGTAAGGGCTTAGGTGGTTGGTGCCTG; experiment: graphene field effect transistor, Dirac voltage shift; conditions: 140 mM Na+, 2 mM K+, 5 mM Mg2+, 2 mM Ca2+; SELEX buffer (20 mM Tris pH 7.4, 0.05% Tween); Langmuir-Hill fit; also printed as 1.8 ± 0.5 μg/ml

| Structure (SMILES) | binding ([1]; less than posaconazole) | binding [2] | binding ([1]; greatest displacement) | dissociation constant [3] [µM] |
| --- | --- | --- | --- | --- |
| CCC(C)n1ncn(-c2ccc(N3CCN(c4ccc(OCC5COC(Cn6cncn6)(c6ccc(Cl)cc6Cl)O5)cc4)CC3)cc2)c1=O (stereo not shown) | weak |  |  |  |
| CC[C@@H]([C@H](C)O)n1ncn(-c2ccc(N3CCN(c4ccc(OC[C@@H]5CO[C@@](Cn6cncn6)(c6ccc(F)cc6F)C5)cc4)CC3)cc2)c1=O |  | no | yes | 2.6 ± 0.7 |
